We go through 11 molecules from US4465685A, “Antiinflammatory pyrazole thioureas” (Burroughs Wellcome Co., priority 1980, dated 1984).

The structures appear in SMILES notation.

One test addresses lipoxygenase. As to the kind of experiment: enzyme assay (Blackwell and Flower), inhibition of lipoxygenase. It is filed as biochemical. Conditions: read-out: ED50 Lipoxygenase.
A further test concerns the target cyclo-oxygenase. Description: enzyme assay (Blackwell and Flower), inhibition of cyclo-oxygenase. The note with it: read-out: ED50 Cyclo-oxygenase. It is filed as biochemical.

`CNC(=S)NC1=NN(c2ccc(Cl)cc2)CC1` [Example 6, 3-(3-methylthioureido)-1-(4-chlorophenyl)-2-pyrazoline]: the IC50 on lipoxygenase amounted to 3000 nM; at cyclo-oxygenase, 5000 nM.

Consider `CN=C(NC1=NN(c2ccc3ccccc3c2)CC1)SC` [Example 17, N^1,S-Dimethyl-N^2 -/1-(2-naphthyl)-2-pyrazolin-3-yl/isothiourea hydriodide], for which the IC50 on lipoxygenase and at cyclo-oxygenase was 1000 nM throughout.

For the molecule `CNC(=S)NC1=NN(c2ccc3ccccc3c2)CC1` [Example 10, 3-(3-methylthioureido)-1-(2-naphthyl)-2-pyrazoline], the IC50 was 1000 nM at lipoxygenase and 250 nM on cyclo-oxygenase.

In the case of `CN=C(NC1=NN(c2ccc(Cl)cc2)CC1)SC` [Example 9, N,S-dimethyl-N^2 -/1-(4-chlorophenyl)-2-pyrazoline-3-yl/isothiourea hydriodide], the IC50 at lipoxygenase and on cyclo-oxygenase was 10000 nM throughout.

For the molecule `CNC(=S)NC1=NN(c2cnc3ccccc3c2)CC1` [Example 13, 3-(3-Methylthioureido)-1-(3-quinolyl)-2-pyrazoline], the IC50 on lipoxygenase and at cyclo-oxygenase was 10000 nM throughout.

Take `CNC(=S)NC1=NN(c2ccccc2Cl)CC1` [Example 14, 1-(2-Chlorophenyl)-3-(3-methylthioureido)-2-pyrazoline]: the IC50 at lipoxygenase and on cyclo-oxygenase was 10000 nM each time.

In the case of `CNC(=S)NC1=NN(c2cccc(C(F)(F)F)c2)CC1` [Example 3, 3-(N^2-methylthioureido)-1-(3-trifluoromethylphenyl)-2-pyrazoline], the IC50 on lipoxygenase and at cyclo-oxygenase was 1000 nM each time.

Consider `CN=C(NC1=NN(c2cccc(C(F)(F)F)c2)CC1)SC` [Example 5, 3-(N^2,S-dimethylisothioureido)-1-(3-trifluoromethylphenyl)-2-pyrazoline hydriodide monohydrate], for which the IC50 on lipoxygenase and on cyclo-oxygenase was 1000 nM in each case.

`O=C(NC1=NN(c2cccc(C(F)(F)F)c2)CC1)Nc1ccccc1` [Example 1, 3-(N^2-phenylureido)-1-(3-trifluoromethylphenyl)-2-pyrazoline]: the values for the IC50 at lipoxygenase and at cyclo-oxygenase were 5000 to 10000 nM and 3000 nM, respectively.

Turning to `CCCCNC(=S)NC1=NN(c2cccc(C(F)(F)F)c2)CC1` [Example 8, 3-(3-butylthioureido)-1-(3-trifluoromethylphenyl)-2-pyrazoline], the IC50 on lipoxygenase and at cyclo-oxygenase was 10000 nM in each case.

Turning to `CNC(=O)NC1=NN(c2cccc(C(F)(F)F)c2)CC1` [Example 2, 3-(N^2-methylureido)-1-(3-trifluoromethylphenyl)-2-pyrazoline], the IC50 on lipoxygenase and at cyclo-oxygenase was 3000 nM throughout.
